# Experimental data reported in article PMC6403271, “Characterization, mechanism of action and optimization of activity of a novel peptide-peptoid hybrid against bacterial pathogens involved in canine skin infections” (Scientific Reports, 2019).
# Square brackets hold non-standard residues; d marks the D form. Peptide text beside a SMILES is read from it. N(1-naphthylmethyl)Gly = O=C(O)CNCc1cccc2ccccc12; N(4-MeBn)Gly = Cc1ccc(CNCC(=O)O)cc1; NBuGly = CCCCNCC(=O)O
# Tested on: MRSP E104
# Assay: Flow cytometry (TO/PI) of antimicrobial-exposed cells
# Type: cell-based, Staphylococcus pseudintermedius
# Conditions: MRSP E104, lysis concentration (1x MIC), 3 µg/ml, 1 h
# Experimental: Freshly grown cultures (OD 0.2 at 600 nm) of MRSP E104 were exposed to 3 µg/ml of B1 or 2.5 µg/ml of nisin for 1 h and diluted 1:10 in flow cytometry analysis buffer (PBS supplemented with 1 mM EDTA, 0.01% Tween 20 and filtered by 0.22 µm membrane). Diluted cells were stained with 420 nM thiazole orange (TO, Sigma) and 48 µM propidium iodide (PI, Sigma) and analysed using BD ACCURI C6 flow cytometer (BD Biosciences). Unstained cells were used as negative control. Finally, the differentially labelled bacterial populations in antimicrobial-exposed cultures were plotted under FL3(red)/FL1(green) axis using the instrument’s software and categorised into four different conditions: P1 (unstained), P2 (dead cells), P3 (injured cells) and P4 (live cells).
compound,measurement,value
"CCCCN(CC(=O)N[C@@H](CCCCN)C(=O)N(CC(=O)N(CC(=O)N(CC(N)=O)Cc1cccc2ccccc12)Cc1ccc(C)cc1)Cc1cccc2ccccc12)C(=O)[C@H](CCCCN)NC(=O)[C@@H](N)CCCCN [B1, Lys-Lys-(NBu)Gly-Lys-(N1-Nal)Gly-(N4-MeBn)Gly-(N1-Nal)Gly] (H-KK[NBuGly]K[N(1-naphthylmethyl)Gly][N(4-MeBn)Gly][N(1-naphthylmethyl)Gly]-NH2)",flow cytometry PI/TO staining,Cell death
